In PMC7287882, “Dual miRNases for Triple Incision of miRNA Target: Design Concept and Catalytic Performance” (Molecules, 2020):

Key:
miR-17 = experiment: Ribonuclease activity assay at different concentrations of KCl; assay type: biochemical; settings: miRNA 1 µM, DC 20 µM, 37 °C, 48 h; for Cleavage: 20 mM Tris-HCl pH 7.8, 8 mM MgCl2, 1 mM DTT, 0.02 mg/mL BSA, mean ± s.e.
Protocol: Potassium ions play an important role in the regulation of cell homeostasis by maintaining the membrane potential, cell volume and pH, and may also have an influence on the performance of artificial ribonucleases. […] In order to understand the effect of K^+ ions on the efficiency of miRNA cleavage by DCs, miR-17 was incubated with the matching DC in the buffer containing 50 mM Tris-HCl, pH 7.0, 1 mM DTT, 0.02 mg/mL BSA and different K^+ concentration varied from 0 to 400 mM. […] In the absence of potassium and at a concentration of more than 200 mM, the efficiency of miRNA cleavage was 2-fold reduced.
Reaction with different concentration of KCl was performed in reaction mixtures (8 µL) containing 320 cpm (Cherenkov’s counting) of [^32P]-miR-17, 1 μM unlabeled miRNA, 20 µM of miRNA-17-DC in buffers contained 20 mM Tris-HCl, pH 7.8, 8 mM MgCl2, 1 mM DTT, 0.02 mg/mL BSA, and KCl at concentration 0, 40, 100, 200 or 400 mM at 37 °C for 48 h. RNA cleavage products were collected and analyzed as described above.

miR-18a = experiment: Gel-retardation assay, hybridization with miR-18a; assay type: binding; settings: 37 °C, 45 min, mean of 3
Description: We carried out a comparative analysis of the hybridization properties of the developed DCs with the corresponding SCs, which were the products of the first stage of the DCs synthesis. As discussed above, each SC consisted of the corresponding oligonucleotide A, which was complementary to the 5′-region of the matching miRNA target, and the catalytic peptide [LRLRG]2, attached to the 5′-end of this oligonucleotide via a thiohexyl linker (linker 2). […] Indeed, the level of binding of DCs to their miRNA targets reached 96, 90, 75, 55% at equimolar concentration (1 μM), and 99, 96, 92 and 69% at 5-fold excess of DCs over miR-17, miR-18a, miR-21 and miR-155, respectively (Figure 2). […]
The reaction mixture (4 µL) containing 50 mM Tris-HCl, pH 7.0, 200 mM KCl and 1 mM EDTA, 100 cpm (Cherenkov’s counting) of [^32P]-miRNA, 1 μM unlabeled miRNA, a conjugate at a concentration ranging from 0.1 to 10 μM was incubated at 37 °C for 45 min and quenched by adding of a loading buffer (20% ficoll, 0.025% bromophenol blue, 0.025% xylene cyanol). […] Formation of the complex miRNA/conjugate was analyzed by electrophoresis in 15% native PAAG at 4 °C. The gels were analyzed using Molecular Imager FX. The extent of binding of conjugate to miRNA was determined as a ratio of radioactivity measured in the complex to the total radioactivity applied onto the gel lane.

Question: How did the Cleavage (miR-17; K+ 0 mM) turn out when “CTACCTGC–linker 1–[GRLRL]2–linker 2–AAGCACTTTG [miRNA-17-DC, Dual oligonucleotide-peptide conjugate targeted to miR-17: catalytic peptide [LRLRG]2 between two 2-aminoadenine-containing oligodeoxyribonucleotides]” was run?
Answer: 13.2±5.0%

Question: What about the Cleavage (miR-17; K+ 40 mM) of the same substance?
Answer: 22.5±4.3%

Question: What about the Cleavage (miR-17; K+ 100 mM) of the same substance?
Answer: 26.4±2.0%

Question: And the Cleavage (miR-17; K+ 200 mM)?
Answer: 13.7±3.5%

Question: And the Cleavage (miR-17; K+ 400 mM)?
Answer: 14.1±3.8%

Question: And the “most potent degradation of miRNA-target” value (miR-17; at 40–100 mM KCl)?
Answer: approximately 25%

Question: With “TATCTGC–linker 1–[GRLRL]2–linker 2–ATGCACCTTA [miRNA-18a-DC, Dual oligonucleotide-peptide conjugate targeted to miR-18a: catalytic peptide [LRLRG]2 between two 2-aminoadenine-containing oligodeoxyribonucleotides]” as the substance, how does the “level of binding of DC to miRNA target” value (miR-18a; 5-fold excess of DC over miRNA (1 µM), same buffer) read?
Answer: 96%

Question: And the “level of binding of DC to miRNA target” value (miR-18a; equimolar, DC 1 µM : miRNA 1 µM, 50 mM Tris-HCl pH 7.0, 200 mM KCl, 1 mM EDTA)?
Answer: 90%
